Measured values reported in US12172983B2, “EGFR inhibitors” (Blueprint Medicines Corporation, priority 2019, dated 2024).
Like-named read-outs stand apart in the source and are kept apart here.

Key:
EGFR (L858R T790M C797S) = biological target: T1, EGFR (L858R T790M C797S) (Homo sapiens, UniProt P00533, C797S/L858R/T790M); experiment: Biochemical EGFR inhibition assay (Caliper mobility shift), EGFR LRTMCS mutant; settings: inhibitory activity against EGFR LRTMCS mutant; apparent IC50; read-out: Ext Enz LRTMCS
T1 construct: purchased SignalChem E10-122VG
Summary of the method: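 Kinase reactions at 25 °C run to 10–20% peptide phosphorylation, stopped with 35 mM EDTA. Phosphorylated product and substrate separated electrophoretically by mobility shift. Apparent IC50 from percent activity versus log compound concentration.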

[1] = test system: phosphorylation of EGFR (Tyr1068) in NCI-H1975 cell line that harbors the EGFR L858R T790M mutations; experiment: NCI-H1975 pEGFR AlphaLISA assay; assay type: cell-based; settings: 4-5 hours incubation, read-out: Ext pEGFR H1975
Summary of the method: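 NCI-H1975 cells (EGFR L858R/T790M) seeded overnight, then treated with compound for 4-5 h at 37 °C/5% CO2. After lysis, p-EGFR (Tyr1068) quantified by AlphaLISA SureFire Ultra with acceptor then donor beads; IC50 fitted from percent inhibition versus log concentration.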

[2] = Homo sapiens, NCI-H1975, inhibition of phosphorylation of mutant EGFR in NCI-H1975 cells

T1 sequence (P00533 25-1210 T790M/C797S/L858R): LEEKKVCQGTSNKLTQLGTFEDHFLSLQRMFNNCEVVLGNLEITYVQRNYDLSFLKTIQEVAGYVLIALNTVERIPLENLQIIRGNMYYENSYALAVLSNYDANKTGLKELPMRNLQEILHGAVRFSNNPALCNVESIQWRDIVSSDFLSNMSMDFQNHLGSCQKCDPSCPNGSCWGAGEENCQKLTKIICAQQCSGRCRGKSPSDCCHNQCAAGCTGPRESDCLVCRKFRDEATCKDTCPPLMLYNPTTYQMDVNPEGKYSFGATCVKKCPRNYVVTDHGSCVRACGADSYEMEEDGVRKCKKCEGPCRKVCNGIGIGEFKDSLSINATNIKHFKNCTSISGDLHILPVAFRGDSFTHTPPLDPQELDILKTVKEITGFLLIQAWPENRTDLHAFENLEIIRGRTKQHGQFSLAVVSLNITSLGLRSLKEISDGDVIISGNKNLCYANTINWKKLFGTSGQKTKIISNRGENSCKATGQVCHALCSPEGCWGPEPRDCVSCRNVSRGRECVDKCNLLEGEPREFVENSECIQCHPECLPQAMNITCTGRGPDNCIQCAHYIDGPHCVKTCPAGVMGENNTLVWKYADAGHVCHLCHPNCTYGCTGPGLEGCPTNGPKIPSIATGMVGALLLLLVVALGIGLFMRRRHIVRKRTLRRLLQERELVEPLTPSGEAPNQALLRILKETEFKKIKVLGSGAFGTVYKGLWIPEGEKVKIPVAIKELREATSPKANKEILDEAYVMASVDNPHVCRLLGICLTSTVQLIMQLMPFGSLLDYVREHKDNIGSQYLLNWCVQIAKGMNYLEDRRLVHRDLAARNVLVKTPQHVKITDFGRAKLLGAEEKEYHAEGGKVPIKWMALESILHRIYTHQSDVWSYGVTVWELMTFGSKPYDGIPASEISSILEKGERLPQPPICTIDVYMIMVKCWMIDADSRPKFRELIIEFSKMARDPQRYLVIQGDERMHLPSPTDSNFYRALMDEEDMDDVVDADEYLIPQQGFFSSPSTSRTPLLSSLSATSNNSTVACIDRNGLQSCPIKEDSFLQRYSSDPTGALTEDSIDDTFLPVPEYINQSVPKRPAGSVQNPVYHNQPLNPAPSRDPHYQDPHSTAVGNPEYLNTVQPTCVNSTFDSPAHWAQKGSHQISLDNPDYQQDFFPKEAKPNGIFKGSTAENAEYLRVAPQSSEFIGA

Row | Structure (SMILES) | IC50 (EGFR (L858R T790M C797S)) | IC50 [1, 2] | IC50 ([1]; inhibition of phosphorylation of mutant EGFR in NCI-H1975 cells)
1 | CNCCO[C@@H]1CCN(c2nccc(Nc3cc4c(C(C)C)ccc(N5C[C@H](CS(C)(=O)=O)[C@H]5C)c4cn3)n2)C[C@@H]1F [Compound 240, N-{2-[(3S,4R)-3-fluoro-4-[2-(methylamino)ethoxy]piperidin-1-yl]pyrimidin-4-yl}-8-[(2R,3S)-3-(methanesulfonylmethyl)-2-methylazetidin-1-yl]-5-(propan-2-yl)isoquinolin-3-amine] | ≤ 0.015 µM | ≤ 0.01 µM | 
2 | CC(C)c1ccc(N2C[C@H](CS(C)(=O)=O)[C@H]2C)c2cnc(Nc3cnnc(N4CC[C@](C)(O)[C@H](F)C4)n3)cc12 (single isomer, unassigned) [Compound 141] | ≤ 0.015 µM | 0.0101 to 0.02 µM | 
3 | CCS(=O)(=O)C[C@H]1CN(c2ccc(C(C)C)c3cc(Nc4ccnc(N5CC[C@](C)(O)[C@H](F)C5)n4)ncc23)[C@@H]1C (single isomer, unassigned) [Compound 187] | 0.0301 to 0.1 µM | 0.0101 to 0.02 µM | 
4 | CO[C@@H]1CCN(c2nccc(Nc3cc4c(C(C)C)nnc(N5C[C@H](CS(C)(=O)=O)[C@H]5C)c4cn3)n2)C[C@@H]1F [Compound 150, N-(2-((3S,4R)-3-fluoro-4-methoxypiperidin-1-yl)pyrimidin-4-yl)-1-isopropyl-4-((2R,3S)-2-methyl-3-(methylsulfonylmethyl)azetidin-1-yl)pyrido[4,3-d]pyridazin-7-amine] | ≤ 0.015 µM | 0.0201 to 0.03 µM | 
5 | CC[C@@]1(F)CN(c2nccc(Nc3cc4c(C(C)C)ccc(N5C[C@H](CS(C)(=O)=O)[C@H]5C)c4cn3)n2)CC[C@@H]1O (single isomer, unassigned) [Compound 184, (3R,4S)-3-ethyl-3-fluoro-1-[4-({8-[(2R,3S)-3-(methanesulfonylmethyl)-2-methylazetidin-1-yl]-5-(propan-2-yl)isoquinolin-3-yl}amino)pyrimidin-2-yl]piperidin-4-ol or (3S,4R)-3-ethyl-3-fluoro-1-[4-({8-[(2R,3S)-3-(methanesulfonylmethyl)-2-methylazetidin-1-yl]-5-(propan-2-yl)isoquinolin-3-yl}amino)pyrimidin-2-yl]piperidin-4-ol] | ≤ 0.015 µM | ≤ 0.01 µM | 
6 | C[C@H](CO)c1ccc(N2CC(CS(C)(=O)=O)C2)c2cnc(Nc3ccnc(N4CCC5(CCO5)CC4)n3)cc12 (single isomer, unassigned) [Compound 87, (2S)-2-{8-[3-(methanesulfonylmethyl)azetidin-1-yl]-3-[(2-{1-oxa-7-azaspiro[3,5]nonan-7-yl}pyrimidin-4-yl)amino]isoquinolin-5-yl}propan-1-ol or (2R)-2-{8-[3-(methanesulfonylmethyl)azetidin-1-yl]-3-[(2-{1-oxa-7-azaspiro[3.5]nonan-7-yl}pyrimidin-4-yl)amino]isoquinolin-5-yl}propan-1-ol] | ≤ 0.015 µM | 0.0201 to 0.03 µM | 
7 | CCS(=O)(=O)CC1CN(c2ccc(C(C)C)c3cc(Nc4cnnc(N5CC[C@@H](OC)[C@@H](F)C5)n4)ncc23)C1 [Compound 280, 8-{3-[(ethanesulfonyl)methyl]azetidin-1-yl}-N-{3-[(3S,4R)-3-fluoro-4-methoxypiperidin-1-yl]-1,2,4-triazin-5-yl}-5-(propan-2-yl)isoquinolin-3-amine] | ≤ 0.015 µM | ≤ 0.01 µM | 
8 | CC(C)c1ccc(N2CC(CS(C)(=O)=O)C2)c2cnc(Nc3ccnc(N4CCCC(O)CC4)n3)cc12 (racemic) [Compound 21, (rac)-1-[4-({8-[3-(methanesulfonylmethyl)azetidin-1-yl]-5-(propan-2-yl)isoquinolin-3-yl}amino)pyrimidin-2-yl]azepan-4-ol] | 0.0201 to 0.03 µM | 0.0301 to 0.05 µM | 
9 | CC(C)c1ccc(N2CC(CS(C)(=O)=O)C2)c2cnc(Nc3ccnc(N4CCC5(CCO5)CC4)n3)cc12 [Compound 38, 8-[3-(methanesulfonylmethyl)azetidin-1-yl]-N-(2-{1-oxa-7-azaspiro[3.5]nonan-7-yl}pyrimidin-4-yl)-5-(propan-2-yl)isoquinolin-3-amine] | ≤ 0.015 µM | ≤ 0.01 µM | 
10 | CO[C@@H]1CCN(c2nccc(Nc3cc4c(C(C)C)ccc(N5C[C@H](CS(C)(=O)=O)[C@H]5C)c4cn3)n2)C[C@@H]1CO (single isomer, unassigned) [Compound 173, [(3R,4R)-1-[4-({8-[(2R,3S)-3-(methanesulfonylmethyl)-2-methylazetidin-1-yl]-5-(propan-2-yl)isoquinolin-3-yl}amino)pyrimidin-2-yl]-4-methoxypiperidin-3-yl]methanol or [(3S,4S)-1-[4-({8-[(2R,3S)-3-(methanesulfonylmethyl)-2-methylazetidin-1-yl]-5-(propan-2-yl)isoquinolin-3-yl}amino)pyrimidin-2-yl]-4-methoxypiperidin-3-yl]methanol] | 0.0151 to 0.02 µM | 0.0201 to 0.03 µM | 
11 | CC(C)c1ccc(N2CC(CS(=O)(=O)C3CC3)C2)c2cnc(Nc3ccnc(N4CC[C@@H](O)[C@@](C)(F)C4)n3)cc12 [Compound 170, (3S,4R)-1-{4-[(8-{3-[(cyclopropanesulfonyl)methyl]azetidin-1-yl}-5-(propan-2-yl)isoquinolin-3-yl)amino]pyrimidin-2-yl}-3-fluoro-3-methylpiperidin-4-ol] | ≤ 0.015 µM | ≤ 0.01 µM | 
12 | CC(C)c1cnc(N2CC([C@H](C)S(C)(=O)=O)C2)c2cnc(Nc3ccnc(N4CC[C@@H](O)[C@@](C)(F)C4)n3)cc12 (single isomer, unassigned) [Compound 126] | ≤ 0.015 µM | ≤ 0.01 µM | 
13 | CC(C)c1cnc(N2CC(CS(=O)(=O)C(F)F)C2)c2cnc(Nc3ccnc(N4CC[C@@H](O)[C@@](C)(F)C4)n3)cc12 (single isomer, unassigned) [Compound 220] | ≤ 0.015 µM | ≤ 0.01 µM | 
14 | CO[C@@H]1[C@H](F)CN(c2nccc(Nc3cc4c(C(C)C)ccc(N5CC(CS(C)(=O)=O)C5)c4cn3)n2)C[C@@H]1OC (stereo in doubt) [Compound 201] | 0.0201 to 0.03 µM | ≤ 0.01 µM | 
15 | CC(C)c1ccc(N2C[C@H](CS(C)(=O)=O)[C@H]2C)c2cnc(Nc3ccnc(N4CC[C@](C)(O)C(F)(F)C4)n3)cc12 (single isomer, unassigned) [Compound 210, (4S)-3,3-difluoro-1-[4-({8-[(2R,3S)-3-(methanesulfonylmethyl)-2-methylazetidin-1-yl]-5-(propan-2-yl)isoquinolin-3-yl}amino)pyrimidin-2-yl]-4-methylpiperidin-4-ol or (4R)-3,3-difluoro-1-[4-({8-[(2R,3S)-3-(methanesulfonylmethyl)-2-methylazetidin-1-yl]-5-(propan-2-yl)isoquinolin-3-yl}amino)pyrimidin-2-yl]-4-methylpiperidin-4-ol] | 0.0201 to 0.03 µM | 0.0101 to 0.02 µM | 
16 | CO[C@@H]1CCN(c2nccc(Nc3cc4c(C(C)C)ccc(N5C[C@H](CS(C)(=O)=O)[C@H]5C)c4cn3)n2)C[C@H]1CO (single isomer, unassigned) [Compound 174, [(3S,4R)-1-[4-({8-[(2R,3S)-3-(methanesulfonylmethyl)-2-methylazetidin-1-yl]-5-(propan-2-yl)isoquinolin-3-yl}amino)pyrimidin-2-yl]-4-methoxypiperidin-3-yl]methanol or [(3R,4S)-1-[4-({8-[(2R,3S)-3-(methanesulfonylmethyl)-2-methylazetidin-1-yl]-5-(propan-2-yl)isoquinolin-3-yl}amino)pyrimidin-2-yl]-4-methoxypiperidin-3-yl]methanol] | ≤ 0.015 µM | 0.0101 to 0.02 µM | 
17 | CO[C@H]1CCN(c2nccc(Nc3cc4c(C(C)C)cnc(N5CC(C[S@@](C)(=N)=O)[C@H]5C)c4cn3)n2)C[C@H]1F (single isomer, unassigned) [Compound 107, (1S)-(((2R)-1-(6-((2-((3R,4S)-3-fluoro-4-methoxypiperidin-1-yl)pyrimidin-4-yl)amino)-4-isopropyl-2,7-naphthyridin-1-yl)-2-methylazetidin-3-yl)methyl)(imino)(methyl)-λ^6-sulfanone or (1R)-(((2R)-1-(6-((2-((3R,4S)-3-fluoro-4-methoxypiperidin-1-yl)pyrimidin-4-yl)amino)-4-isopropyl-2,7-naphthyridin-1-yl)-2-methylazetidin-3-yl)methyl)(imino)(methyl)-λ^6-sulfanone] | ≤ 0.015 µM |  | 0.0101 to 0.02 µM
18 | COc1ccc(N2CC(CS(C)(=O)=O)C2)c2cnc(Nc3ccnc(N4C[C@@H](F)[C@@H](O)C(C)(C)C4)n3)cc12 (single isomer, unassigned) [Compound 79, (4S,5R)-5-fluoro-1-[4-({8-[3-(methanesulfonylmethyl)azetidin-1-yl]-5-methoxyisoquinolin-3-yl}amino)pyrimidin-2-yl]-3,3-dimethylpiperidin-4-ol or (4R,5S)-5-fluoro-1-[4-({8-[3-(methanesulfonylmethyl)azetidin-1-yl]-5-methoxyisoquinolin-3-yl}amino)pyrimidin-2-yl]-3,3-dimethylpiperidin-4-ol] | ≤ 0.015 µM | 0.0101 to 0.02 µM | 
19 | CO[C@@H]1CCN(c2nccc(Nc3cc4c(C(C)C)ncc(N5C[C@H](CS(C)(=O)=O)[C@H]5C)c4cn3)n2)C[C@@H]1F [Compound 139, N-{2-[(3S,4R)-3-fluoro-4-methoxypiperidin-1-yl]pyrimidin-4-yl}-8-[(2R,3S)-3-(methanesulfonylmethyl)-2-methylazetidin-1-yl]-5-(propan-2-yl)-2,6-naphthyridin-3-amine] | ≤ 0.015 µM | ≤ 0.01 µM | 
20 | CO[C@H]1CCN(c2nccc(Nc3cc4c(C(C)C)ccc(N5CC(CS(C)(=O)=O)C5)c4cn3)n2)CC1(F)F (single isomer, unassigned) [Compound 158] | 0.0151 to 0.02 µM | 0.0101 to 0.02 µM | 
